In patent EP2934149B1, “C6-AZASPIRO IMINOTHIADIAZINE DIOXIDES AS BACE INHIBITORS” (Merck Sharp & Dohme Corp., priority 2012, dated 2014):

How the values were obtained:
[1] = target: soluble human BACE1 catalytic domain (Homo sapiens, UniProt P56817); assay: BACE1 HTRF FRET Assay; type: biochemical; details: Ki calculated from IC50 using the Cheng-Prusoff equation; QSY7-APPswe-Eu substrate 200 nM final, pH 5.0, 30° C
Description: A homogeneous time-resolved FRET assay can be used to determine IC50 values for inhibitors of the soluble human BACE1 catalytic domain. […] This substrate contains an N-terminal QSY7 moiety that serves as a quencher of the C-terminal Europium fluorophore (620nm Em). […] Inhibition of BACE1 cleavage of the QSY7-APP^swe-Eu substrate by inhibitors is manifested as a suppression of 620 nm fluorescence. […] The reactions are incubated at 30° C for 1.5 hours. The 620nm fluorescence is then read on a Rubystar HTRF plate reader (BMG Labtechnologies) using a 50 millisecond delay followed by a 400 millisecond acquisition time window. Inhibitor IC50 values are derived from non-linear regression analysis of concentration response curves.

[2] = target: T1, purified human autoBACE-2 (Homo sapiens, UniProt Q9Y5Z0); assay: BACE-2 Assay (BACE-HTRF assay); type: biochemical; details: Ki calculated from IC50 using the Cheng-Prusoff equation; QSY7-EISEVNLDAEFC-Eu-amide substrate 200 nM final, pH 5.0, 30°C; read-out: BACE2 Ki
T1 sequence (Q9Y5Z0 63-473 limits assumed): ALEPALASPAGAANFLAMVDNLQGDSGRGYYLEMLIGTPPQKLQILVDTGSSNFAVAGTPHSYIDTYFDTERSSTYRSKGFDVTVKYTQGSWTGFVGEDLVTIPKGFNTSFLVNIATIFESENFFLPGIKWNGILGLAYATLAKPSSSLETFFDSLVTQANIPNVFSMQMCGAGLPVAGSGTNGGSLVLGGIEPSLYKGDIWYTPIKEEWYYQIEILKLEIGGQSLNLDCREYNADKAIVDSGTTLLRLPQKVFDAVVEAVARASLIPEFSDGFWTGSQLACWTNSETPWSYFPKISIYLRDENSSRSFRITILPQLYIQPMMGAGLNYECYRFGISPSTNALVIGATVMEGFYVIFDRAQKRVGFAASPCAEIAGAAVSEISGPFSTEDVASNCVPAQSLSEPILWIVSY
Description: Inhibitor IC50's at purified human autoBACE-2 are determined in a time-resolved endpoint proteolysis assay that measures hydrolysis of the QSY7-[…]-Eu-amide FRET peptide substrate (BACE-HTRF assay). […] Inhibitor compounds, prepared at 3x the desired final concentration in 1x BACE assay buffer (20 mM sodium acetate pH 5.0,10% glycerol, 0.1% Brij-35) supplemented with 7.5% DMSO are pre-incubated with an equal volume of autoBACE-2 enzyme diluted in 1x BACE assay buffer (final enzyme concentration 1 nM) in black 384-well NUNC plates for 30 minutes at 30°C. […] DMSO is present at 5% final concentration in the assay. Following laser excitation of sample wells at 320 nm, the fluorescence signal at 620 nm is collected for 400 ms following a 50 µs delay on a RUBYstar HTRF plate reader (BMG Labtechnologies). Raw RFU data is normalized to maximum (1.0 nM BACE/DMSO) and minimum (no enzyme/DMSO) RFU values. […] The Ki values are calculated from the IC50 using the Cheng-Prusoff equation.

soluble human BACE1 catalytic domain, sequence (P56817 75-416 limits assumed): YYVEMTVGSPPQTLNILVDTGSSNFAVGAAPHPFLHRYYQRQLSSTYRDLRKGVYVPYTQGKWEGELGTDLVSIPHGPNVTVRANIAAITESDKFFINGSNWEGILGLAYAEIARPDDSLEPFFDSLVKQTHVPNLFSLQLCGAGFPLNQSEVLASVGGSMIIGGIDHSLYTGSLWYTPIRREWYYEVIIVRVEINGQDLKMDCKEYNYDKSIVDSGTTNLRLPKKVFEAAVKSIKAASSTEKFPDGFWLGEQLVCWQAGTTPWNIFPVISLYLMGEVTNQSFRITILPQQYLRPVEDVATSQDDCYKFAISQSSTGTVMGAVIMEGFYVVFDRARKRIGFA

Structure (SMILES) | Ki [1] | Ki [2]
CCS(=O)(=O)N1CC[C@]2(C1)[C@@](C)(c1cc(NC(=O)c3ccc(OC)cn3)ccc1F)NC(=N)N(C)S2(=O)=O [Example 69] | 0.033 µM | 0.157 µM
COc1ccc(C(=O)Nc2ccc(F)c([C@@]3(C)NC(=N)N(C)S(=O)(=O)[C@]34CCN(S(=O)(=O)CC(C)C)C4)c2)nc1 [Example 70] | 0.037 µM | 0.1 µM
COc1ccc(C(=O)Nc2ccc(F)c([C@@]3(C)NC(=N)N(C)S(=O)(=O)[C@]34CCN(S(=O)(=O)c3ccc(F)cc3)C4)c2)nc1 [Example 71] | 0.024 µM | 0.03 µM
COc1ccc(C(=O)Nc2ccc(F)c([C@@]3(C)NC(=N)N(C)S(=O)(=O)[C@]34CCN(S(=O)(=O)CC(F)(F)F)C4)c2)nc1 [Example 72] | 0.028 µM | 0.099 µM
CN1C(=N)N[C@](C)(c2cc(NC(=O)c3ccc(F)cn3)ccc2F)[C@]2(CCN(S(=O)(=O)c3ccc(F)cc3)C2)S1(=O)=O [Example 73] | 0.003 µM | 0.01 µM
CN1C(=N)N[C@](C)(c2cc(NC(=O)c3ccc(F)cn3)ccc2F)[C@]2(CCN(S(=O)(=O)CC(F)(F)F)C2)S1(=O)=O [Example 74] | 0.002 µM | 0.004 µM
CN1C(=N)N[C@](C)(c2cc(NC(=O)c3ccc(F)cn3)ccc2F)[C@]2(CCN(S(C)(=O)=O)C2)S1(=O)=O [Example 75] | 0.004 µM | 0.007 µM
CCS(=O)(=O)N1CC[C@@]2(C1)[C@@](C)(c1cc(NC(=O)c3ccc(F)cn3)ccc1F)NC(=N)N(C)S2(=O)=O [Example 76] | 0.002 µM | 0.004 µM
CC(C)CS(=O)(=O)N1CC[C@@]2(C1)[C@@](C)(c1cc(NC(=O)c3ccc(F)cn3)ccc1F)NC(=N)N(C)S2(=O)=O [Example 77] | 0.002 µM | 0.003 µM
CN1C(=N)N[C@](C)(c2cc(NC(=O)c3ccc(F)cn3)ccc2F)[C@]2(CCN(S(=O)(=O)c3ccccc3)C2)S1(=O)=O [Example 78] | 0.002 µM | 0.007 µM
CN1C(=N)N[C@](C)(c2cc(NC(=O)c3ccc(F)cn3)ccc2F)[C@]2(CCN(S(=O)(=O)C3CC3)C2)S1(=O)=O [Example 79] | 0.001 µM | 0.002 µM
CN1C(=N)N[C@](C)(c2cc(NC(=O)c3ccc(F)cn3)ccc2F)[C@]2(CCN(S(=O)(=O)Cc3cccnc3)C2)S1(=O)=O [Example 80] | 0.002 µM | 0.005 µM
CN1C(=N)N[C@](C)(c2cc(NC(=O)c3ccc(F)cn3)ccc2F)[C@]2(CCN(S(=O)(=O)c3cn(C)cn3)C2)S1(=O)=O [Example 81] | 0.008 µM | 0.024 µM
CN1C(=N)N[C@](C)(c2cc(NC(=O)c3ccc(F)cn3)ccc2F)[C@]2(CCN(S(=O)(=O)c3cn[nH]c3)C2)S1(=O)=O [Example 83] | 0.005 µM | 0.011 µM
CN1C(=N)N[C@](C)(c2cc(NC(=O)c3ccc(F)cn3)ccc2F)[C@]2(CCN(S(=O)(=O)C3CCCC3)C2)S1(=O)=O [Example 84] | 0.002 µM | 0.002 µM
CN1C(=N)N[C@](C)(c2cc(NC(=O)c3ccc(F)cn3)ccc2F)[C@@]2(CCN(S(=O)(=O)C3CCCC3)C2)S1(=O)=O [Example 85] | 0.041 µM | 0.037 µM
CN1C(=N)N[C@](C)(c2cc(NC(=O)c3ccc(F)cn3)ccc2F)[C@@]2(CCN(S(C)(=O)=O)C2)S1(=O)=O [Example 88] | 0.034 µM | 0.054 µM
CCS(=O)(=O)N1CC[C@]2(C1)[C@@](C)(c1cc(NC(=O)c3ccc(F)cn3)ccc1F)NC(=N)N(C)S2(=O)=O [Example 89] | 0.045 µM | 0.041 µM
CC(C)CS(=O)(=O)N1CC[C@]2(C1)[C@@](C)(c1cc(NC(=O)c3ccc(F)cn3)ccc1F)NC(=N)N(C)S2(=O)=O [Example 90] | 0.048 µM | 0.029 µM
CN1C(=N)N[C@](C)(c2cc(NC(=O)c3ccc(F)cn3)ccc2F)[C@@]2(CCN(S(=O)(=O)C3CC3)C2)S1(=O)=O [Example 92] | 0.041 µM | 0.029 µM
CN1C(=N)N[C@](C)(c2cc(NC(=O)c3ccc(F)cn3)ccc2F)[C@@]2(CCN(S(=O)(=O)Cc3cccnc3)C2)S1(=O)=O [Example 93] | 0.028 µM | 0.02 µM
CN1C(=N)N[C@](C)(c2cc(NC(=O)c3ccc(F)cn3)ccc2F)[C@@]2(CCN(S(=O)(=O)c3cn(C)cn3)C2)S1(=O)=O [Example 94] | 0.037 µM | 0.019 µM
COCC(=O)Nc1ccc(F)c([C@@]2(C)NC(=N)N(C)S(=O)(=O)[C@@]23CCNC3)c1 [Example 97] | 1.04 µM | 0.782 µM
